Data: US8859615B2, “Compounds, compositions and methods for reducing toxicity and treating or preventing diseases” (priority 2008, dated 2014)
“And” between values parts separate entries of the source, which are not always exact repeats. Identical values can stand only once.

Tested on: human colon carcinoma HCT-116 xenografts
Experiment: Compound D with Iso-Oxazole-Fludelone or Isodehydelone in nude mice bearing HCT-116 xenografts
Conditions: mouse, in vivo

## iso-oxazole-fludelone (17-isooxazole-fludelone) [Iso-Flu]
  complete remission (CR): 6/6 and 1/6
